pIC50: −log10 of the molar value. Activity calls are given as the source filed them. The calls are words filed in the database; no cut-off is given here.
Tests used:
[1] = Apparent volume of distribution during terminal phase in Sprague-Dawley rat at 30 mg/kg, po measured upto 24 hrs by UPLC/MS/MS analysis; format: ADME, organism-based; settings: in vivo, read-out: Vz/F
ECa-109 cell line [2] = experiment: Induction of apoptosis in vincristine resistant human Eca-109 cells assessed as viable cells at 5 uM incubated for 24 hrs by AnnexinV-FITC/PI staining based flow cytometric analysis (reference value: 90.3%); format: functional; settings: read-out: Activity
ECa-109 cell line [3] = experiment: Induction of apoptosis in vincristine resistant human Eca-109 cells assessed as necrotic cells at 5 uM incubated for 24 hrs in presence of vincristine by AnnexinV-FITC/PI staining based flow cytometric analysis (reference value: 0.35%); format: functional
ECa-109 cell line [4] = experiment: Cytotoxicity against vincristine resistant human Eca-109 cells incubated for 48 hrs by CCK-8 method relative to control; format: functional; set-up: concentration or dose not given beside the values
[5] = target: T1, Broad substrate specificity ATP-binding cassette transporter ABCG2 (Homo sapiens, UniProt Q9UNQ0); experiment: Binding affinity to ABCG2 in vincristine resistant human Eca-109 cells assessed as stabilization of protein at 100 uM incubated for 30 mins by thermal shift assay; format: cell-based; settings: eca-109, 0.5 h
T1 sequence (Q9UNQ0 whole entry): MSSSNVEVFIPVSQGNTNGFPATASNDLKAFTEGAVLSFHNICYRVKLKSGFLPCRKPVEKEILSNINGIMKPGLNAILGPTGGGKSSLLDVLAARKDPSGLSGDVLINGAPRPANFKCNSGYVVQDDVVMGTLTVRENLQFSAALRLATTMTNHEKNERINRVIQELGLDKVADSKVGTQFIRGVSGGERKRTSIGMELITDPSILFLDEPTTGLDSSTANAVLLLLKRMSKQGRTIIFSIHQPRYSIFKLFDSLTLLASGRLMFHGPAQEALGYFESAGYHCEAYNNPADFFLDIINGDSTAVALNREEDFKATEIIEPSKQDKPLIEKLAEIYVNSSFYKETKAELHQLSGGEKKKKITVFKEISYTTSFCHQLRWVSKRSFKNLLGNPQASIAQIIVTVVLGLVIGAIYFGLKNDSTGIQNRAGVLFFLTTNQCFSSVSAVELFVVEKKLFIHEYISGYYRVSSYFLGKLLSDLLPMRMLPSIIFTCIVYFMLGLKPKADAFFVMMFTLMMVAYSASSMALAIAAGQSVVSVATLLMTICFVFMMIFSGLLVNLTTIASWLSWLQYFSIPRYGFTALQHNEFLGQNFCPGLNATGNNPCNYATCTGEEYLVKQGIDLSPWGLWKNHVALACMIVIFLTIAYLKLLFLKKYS

[6] = target: T2, ATP-dependent translocase ABCB1 (Homo sapiens, UniProt P08183); experiment: Inhibition of P-gp efflux in vincristine resistant human Eca-109 cells assessed as effect on accumulation of doxorubicin; format: cell-based
T2 sequence (P08183 whole entry): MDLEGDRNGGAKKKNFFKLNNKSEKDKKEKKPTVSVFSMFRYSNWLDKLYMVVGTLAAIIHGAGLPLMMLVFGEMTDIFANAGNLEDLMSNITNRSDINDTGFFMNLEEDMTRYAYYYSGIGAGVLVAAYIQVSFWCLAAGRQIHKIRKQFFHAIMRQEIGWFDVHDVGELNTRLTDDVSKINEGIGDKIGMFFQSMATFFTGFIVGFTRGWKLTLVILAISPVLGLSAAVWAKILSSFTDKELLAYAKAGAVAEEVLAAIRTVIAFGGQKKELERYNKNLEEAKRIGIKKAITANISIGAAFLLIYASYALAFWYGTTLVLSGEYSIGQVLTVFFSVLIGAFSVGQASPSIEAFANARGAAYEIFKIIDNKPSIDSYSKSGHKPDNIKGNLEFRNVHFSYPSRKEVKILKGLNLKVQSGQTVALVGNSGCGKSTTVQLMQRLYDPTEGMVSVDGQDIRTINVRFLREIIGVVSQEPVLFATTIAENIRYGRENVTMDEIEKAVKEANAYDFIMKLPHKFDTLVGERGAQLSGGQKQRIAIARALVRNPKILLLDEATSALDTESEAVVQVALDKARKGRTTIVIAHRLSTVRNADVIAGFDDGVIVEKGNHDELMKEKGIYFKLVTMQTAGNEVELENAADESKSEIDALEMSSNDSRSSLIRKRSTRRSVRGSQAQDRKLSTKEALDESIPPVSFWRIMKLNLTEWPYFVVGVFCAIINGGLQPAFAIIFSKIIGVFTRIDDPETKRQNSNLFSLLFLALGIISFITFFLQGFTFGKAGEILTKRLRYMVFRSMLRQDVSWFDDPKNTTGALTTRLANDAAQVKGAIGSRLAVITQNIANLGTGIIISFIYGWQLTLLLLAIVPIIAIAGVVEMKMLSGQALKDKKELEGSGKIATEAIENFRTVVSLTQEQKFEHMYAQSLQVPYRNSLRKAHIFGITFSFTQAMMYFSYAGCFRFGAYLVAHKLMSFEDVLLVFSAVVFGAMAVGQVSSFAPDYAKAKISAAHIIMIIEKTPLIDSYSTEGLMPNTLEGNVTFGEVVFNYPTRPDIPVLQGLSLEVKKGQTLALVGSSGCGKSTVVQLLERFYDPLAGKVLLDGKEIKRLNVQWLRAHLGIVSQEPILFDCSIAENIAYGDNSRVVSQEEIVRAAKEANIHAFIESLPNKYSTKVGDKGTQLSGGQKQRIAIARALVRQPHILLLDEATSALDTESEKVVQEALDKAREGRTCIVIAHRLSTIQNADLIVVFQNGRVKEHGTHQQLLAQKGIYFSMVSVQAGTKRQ

ECa-109 cell line [7] = experiment: Reversal of VCR -resistance in human Eca-109 cells assessed as cell viability at 2.5 uM incubated for 48 hrs by CCK-8 method (reference value: 6830.0+/-537.0 nM); format: functional, cell-based; settings: ECa-109, 48 h
ECa-109 cell line [8] = experiment: Induction of apoptosis in vincristine resistant human Eca-109 cells assessed as early apoptotic cells at 1 uM incubated for 24 hrs in presence of vincristine by AnnexinV-FITC/PI staining based flow cytometric analysis (reference value: 4.43%); format: functional
[9] = Oral bioavailability in Sprague-Dawley rat at 30 mg/kg measured upto 24 hrs by UPLC/MS/MS analysis; format: ADME, organism-based; settings: in vivo
[10] = target: T2, ATP-dependent translocase ABCB1; experiment: Inhibition of P-gp efflux in vincristine resistant human Eca-109 cells assessed as increase in intracellular accumulation of calcein-AM at 1 to 5 uM incubated for 1 hr by flow cytometry analysis; format: cell-based; settings: eca-109, 1 h, dose 1-5 µM
[11] = Inhibition of clone formation in vincristine resistant human Eca-109 cells at 2 uM incubated for 48 hrs by crystal violet staining based analysis; format: functional
ECa-109 cell line [12] = experiment: Synergistic antitumor activity against in vincristine resistant p-gp overexpressing human Eca-109 cells xenografted in nude mouse assessed as inhibition of tumor proliferation at 30 mg/kg, IG administered every two days for 21 days in presence of vincristine; format: functional, organism-based; settings: time 21.0 day
[13] = Tmax in Sprague-Dawley rat at 3 mg/kg, iv measured upto 24 hrs by UPLC/MS/MS analysis; format: ADME, organism-based; settings: in vivo
ECa-109 cell line [14] = experiment: Synergistic antitumor activity against in vincristine resistant p-gp overexpressing human Eca-109 cells xenografted in nude mouse assessed as reduction in tumor weight at 30 mg/kg, IG administered every two days for 21 days in presence of vincristine by caliper method; format: functional, organism-based; settings: time 21.0 day
[15] = Apparent oral clearance in Sprague-Dawley rat at 30 mg/kg, po measured upto 24 hrs by UPLC/MS/MS analysis; format: ADME, organism-based; settings: in vivo
[16] = Toxicity in nude mouse assessed as change in body weight at 30 mg/kg administered every 2 days for 21 days in presence of vincristine; format: organism-based; settings: in vivo, 48 h, time 2 day
ECa-109 cell line [17] = experiment: Synergistic anticancer activity in vincristine resistant human Eca-109 cells assessed as combination index at 10:1 compound to vincristine ratio measured after 48 hrs; format: functional
[18] = Cytotoxicity against human HK-2 cells incubated for 48 hrs by CCK-8 method; format: toxicity, cell-based
ECa-109 cell line [19] = experiment: Induction of apoptosis in vincristine resistant human Eca-109 cells assessed as early apoptotic cells at 5 uM incubated for 24 hrs in presence of vincristine by AnnexinV-FITC/PI staining based flow cytometric analysis (reference value: 4.43%); format: functional
ECa-109 cell line [20] = experiment: Induction of apoptosis in vincristine resistant human Eca-109 cells assessed as late apoptotic cells at 5 uM incubated for 24 hrs by AnnexinV-FITC/PI staining based flow cytometric analysis (reference value: 7.19%); format: functional
[21] = AUC (0 to infinity) in Sprague-Dawley rat at 30 mg/kg, po measured upto 24 hrs by UPLC/MS/MS analysis; format: ADME, organism-based; set-up: time < 24 hrs, dose 30 mg/kg, route po; settings: in vivo
ECa-109 cell line [22] = experiment: Induction of apoptosis in vincristine resistant human Eca-109 cells assessed as late apoptotic cells at 1 uM incubated for 24 hrs by AnnexinV-FITC/PI staining based flow cytometric analysis (reference value: 7.19%); format: functional
[23] = AUC (0 to infinity) in Sprague-Dawley rat at 3 mg/kg, iv measured upto 24 hrs by UPLC/MS/MS analysis; format: ADME, organism-based; set-up: time < 24 hrs, dose 3 mg/kg, route iv; settings: in vivo
ECa-109 cell line [24] = experiment: Induction of apoptosis in vincristine resistant human Eca-109 cells assessed as viable cells at 5 uM incubated for 24 hrs in presence of vincristine by AnnexinV-FITC/PI staining based flow cytometric analysis (reference value: 89.2%); format: functional; settings: read-out: Activity
ECa-109 cell line [25] = experiment: Reversal of vincristine-resistance in human Eca-109 cells assessed as fold reversal by measuring cell viability at 5 uM incubated for 48 hrs by CCK-8 method relative to vincristine alone; format: functional
ECa-109 = experiment: Downregulation of P-gp expression in vincristine resistant human Eca-109 cells at 2.5 to 10 uM incubated for 24 hrs by Western blot analysis; format: functional, cell-based; settings: dose 2.5-10 µM
[26] = Hepatotoxicity in nude mouse at 30 mg/kg, IG administered every two days for 21 days in presence of vincristine by H and E staining based analysis; format: toxicity, organism-based; settings: in vivo, po, 504 h, time 21 day

COc1cc2c(cc1OC)C(Cc1ccc(OC)c(OCc3ccccc3)c1)N(C)CC2 (configuration not stated)
Vd/F [1]: 111 L/kg
viability at 5 µM (ECa-109 cell line [2]): 90.8%
Activity (ECa-109 cell line [3]): 0.62%
Activity (ECa-109 cell line [4]): 95.3%
Activity [5]: Not Active
inhibition (INH) [6]: Active
pIC50 (ECa-109 cell line [7]): 7.18
Activity (ECa-109 cell line [8]): 14.9%
bioavailability [9]: 7.65%
inhibition (INH) [10]: Active
inhibition at 2 µM [11]: 100%
Activity (ECa-109 cell line [12]): Active
Tmax [13]: 10.2 min
Activity (ECa-109 cell line [14]): Active
CL/F [15]: 11.2 L/h/kg
Activity [16]: Non-Toxic
CI (ECa-109 cell line [17]): <1
IC50 at 48 h [18]: > 50 µM
Activity (ECa-109 cell line [19]): 24.9%
Activity (ECa-109 cell line [20]): 6.58%
AUC(0-inf) [21]: 2.74 µg·h/mL
Activity (ECa-109 cell line [22]): 6.12%
AUC(0-inf) [23]: 2.74 µg·h/mL
viability at 5 µM (ECa-109 cell line [24]): 64.5%
fold change (FC) (ECa-109 cell line [25]): 690.6
Activity (ECa-109): inactive
Activity [26]: Non-Toxic

Reference: ChEMBL document CHEMBL5247655, “Simplified Derivatives of Tetrandrine as Potent and Specific P-gp Inhibitors to Reverse Multidrug Resistance in Cancer Chemotherapy” (J Med Chem, 2023)
